The target in this series is T1, rhFMO3 (Homo sapiens, UniProt P31513).
T1 construct: purchased Corning Inc
T1 sequence (P31513 1-532): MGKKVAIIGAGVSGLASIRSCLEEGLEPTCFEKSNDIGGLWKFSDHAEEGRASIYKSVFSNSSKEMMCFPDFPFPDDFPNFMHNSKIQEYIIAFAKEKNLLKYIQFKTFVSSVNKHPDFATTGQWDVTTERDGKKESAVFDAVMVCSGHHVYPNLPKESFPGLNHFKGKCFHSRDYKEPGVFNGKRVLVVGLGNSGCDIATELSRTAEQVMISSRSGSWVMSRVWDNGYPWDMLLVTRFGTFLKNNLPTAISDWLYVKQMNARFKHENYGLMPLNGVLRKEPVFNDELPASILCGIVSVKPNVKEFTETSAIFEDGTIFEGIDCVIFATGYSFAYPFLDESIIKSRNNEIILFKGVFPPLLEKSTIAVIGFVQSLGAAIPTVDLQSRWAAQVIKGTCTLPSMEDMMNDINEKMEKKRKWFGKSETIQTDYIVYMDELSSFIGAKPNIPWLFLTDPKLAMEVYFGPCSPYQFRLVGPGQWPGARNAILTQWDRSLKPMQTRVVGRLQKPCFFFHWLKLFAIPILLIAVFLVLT
Kind of series: Incubation of MPZ with recombinant FMO: FMO3. The format is in vitro ADME. Particulars: 1 µM MPZ, pH 8.4. On the procedure: MPZ at 1.0 µM was incubated in triplicate with individual recombinant FMO (Supersomes™ for FMO 1, FMO3, and FMO5). Protein concentrations for all rFMO isoforms were 0.05 mg/ml. A positive control (benzydamine, 100 µM) was incubated for 20 min. The reaction mixture containing MPZ or FMO substrate, KPi buffer (pH 8.4), and FMO Supersomes™ was pre‐incubated at 37°C for 3–5 min. All other procedures were the same as described previously. The negative control reactions were incubated absence of NADPH.

Regarding `CS(=O)(=O)c1ccc2c(c1)N(CCCN1CCC(C(N)=O)CC1)c1ccccc1S2` [MPZ, metopimazine], the “metabolism by rhFMO3” value was “did not metabolize MPZ”.

The record behind these values is paper PMC8929364, “Metopimazine is primarily metabolized by a liver amidase in humans” (Pharmacology Research & Perspectives, 2021).
